From the supplement of paper PMC11061612

How the values were obtained:
AZD5363 = compound: C1CN(CCC1(C(=O)N[C@@H](CCO)C2=CC=C(C=C2)Cl)N)C3=NC=NC4=C3C=CN4 [AZD5363]; settings: max 10 µM
Outline: (§1)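 Following 24 hours at 37°C and 5% CO2, cancer cell lines in 1536-well plates with 7.5 μl DMEM/F12 or RPMI and 10% FBS were dosed for 72 hours, final DMSO typically being 0.2%. CellTiter-Glo 2.0 luminescence, scaled between blank-well and DMSO-well means, gave the viability readout. Dose responses were fitted to a two-parameter logistic curve with a non-linear mixed effects model, and the single-agent IC50 was derived from this fit.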

AZD8186 = compound: C[C@@H](Nc1cc(F)cc(F)c1)c1cc(C(=O)N(C)C)cc2c(=O)cc(N3CCOCC3)oc12 [AZD8186]; settings: max 10 µM
Outline: as §1

AZD4320 = compound: CN(CC[C@H](CSC1=CC=CC=C1)NC2=C(C=C(C=C2)S(=O)(=O)NC(=O)C3=CC=C(C=C3)N4CCC(CC4)[C@H](C5=CC=CC=C5C6=CC=C(C=C6)Cl)O)S(=O)(=O)C(F)(F)F)CCO [AZD4320]; settings: max 1 µM
Outline: as §1

Etoposide = compound: COc1cc([C@@H]2c3cc4c(cc3[C@@H](O[C@@H]3O[C@@H]5CO[C@@H](C)O[C@H]5[C@H](O)[C@H]3O)[C@H]3COC(=O)[C@H]23)OCO4)cc(OC)c1O [Etoposide]; settings: max 10 µM
Outline: as §1

5-Fluorouracil = compound: O=c1[nH]cc(F)c(=O)[nH]1 [5-Fluorouracil]; settings: max 20 µM
Outline: as §1

Venetoclax = compound: CC1(C)CCC(CN2CCN(c3ccc(C(=O)NS(=O)(=O)c4ccc(NCC5CCOCC5)c([N+](=O)[O-])c4)c(Oc4cnc5[nH]ccc5c4)c3)CC2)=C(c2ccc(Cl)cc2)C1 [Venetoclax]; settings: max 1 µM
Outline: as §1

[1] = compound: O=C(Nc1ccc2[nH]nc(-c3ccncc3)c2c1)[C@@H]1CCN(CC(=O)N2CCN(c3ccc(-c4ncccn4)cc3)CC2)C1; settings: max 5 µM
Outline: as §1

AZD5153 = compound: COc1nnc2ccc(N3CCC(c4ccc(OCCN5CCN(C)C(=O)[C@H]5C)cc4)CC3)nn12 [AZD5153]; settings: max 1 µM
Outline: as §1

SG3199 = compound: CC1=CN2[C@@H](C1)C=NC3=CC(=C(C=C3C2=O)OC)OCCCCCOC4=C(C=C5C(=C4)N=C[C@@H]6CC(=CN6C5=O)C)OC [SG3199]; settings: max 0.001 µM
Outline: as §1

AZD1390 = compound: CC(C)n1c(=O)n(C)c2cnc3cc(F)c(-c4ccc(OCCCN5CCCCC5)nc4)cc3c21 [AZD1390]; settings: max 0.3 µM
Outline: as §1

Trametinib = compound: CC(=O)Nc1cccc(-n2c(=O)n(C3CC3)c(=O)c3c(Nc4ccc(I)cc4F)n(C)c(=O)c(C)c32)c1 [Trametinib]; settings: max 1 µM
Outline: as §1

Paclitaxel = compound: CC(=O)O[C@H]1C(=O)[C@@]2(C)[C@H]([C@H](OC(=O)c3ccccc3)[C@]3(O)C[C@H](OC(=O)[C@H](O)[C@@H](NC(=O)c4ccccc4)c4ccccc4)C(C)=C1C3(C)C)[C@]1(OC(C)=O)CO[C@@H]1C[C@@H]2O [Paclitaxel]; settings: max 3 µM
Outline: as §1

Carboplatin = compound: C1CC(C1)(C(=O)[O-])C(=O)[O-].N.N.[Pt+2] [Carboplatin]; settings: max 10 µM
Outline: as §1

AZD5991 = compound: Cc1c2c(nn1C)CSCc1cc(n(C)n1)CSc1cc(c3ccccc3c1)OCCCc1c(C(=O)O)n(C)c3c-2c(Cl)ccc13 [AZD5991]; settings: max 1 µM
Outline: as §1

Olaparib = compound: O=C(c1cc(Cc2n[nH]c(=O)c3ccccc23)ccc1F)N1CCN(C(=O)C2CC2)CC1 [Olaparib]; settings: max 10 µM
Outline: as §1

Taselisib = compound: Cc1nc(-c2cn3c(n2)-c2ccc(-c4cnn(C(C)(C)C(N)=O)c4)cc2OCC3)n(C(C)C)n1 [Taselisib]; settings: max 10 µM
Outline: as §1

AZD0156 = compound: CN(C)CCCOc1ccc(-c2ccc3ncc4c(c3c2)n(C2CCOCC2)c(=O)n4C)cn1 [AZD0156]; settings: max 3 µM
Outline: as §1

Gemcitabine = compound: Nc1ccn([C@@H]2O[C@H](CO)[C@@H](O)C2(F)F)c(=O)n1 [Gemcitabine]; settings: max 0.3 µM
Outline: as §1

Gefitinib = compound: COc1cc2ncnc(Nc3ccc(F)c(Cl)c3)c2cc1OCCCN1CCOCC1 [Gefitinib]; settings: max 10 µM
Outline: as §1

AZD1775 = compound: C=CCn1c(=O)c2cnc(Nc3ccc(N4CCN(C)CC4)cc3)nc2n1-c1cccc(C(C)(C)O)n1 [AZD1775]; settings: max 3 µM
Outline: as §1

AZD7648 = compound: Cc1cc2ncnn2cc1Nc1ncc2c(n1)n(C1CCOCC1)c(=O)n2C [AZD7648]; settings: max 10 µM
Outline: as §1

AZD2811 = compound: CCN(CCO)CCCOc1ccc2c(Nc3cc(CC(=O)Nc4cccc(F)c4)[nH]n3)ncnc2c1 [AZD2811]; settings: max 1 µM
Outline: as §1

Savolitinib = compound: C[C@@H](c1ccc2nccn2c1)n1nnc2ncc(-c3cnn(C)c3)nc21 [Savolitinib]; settings: max 1 µM
Outline: as §1

Prexasertib = compound: COc1cccc(OCCCN)c1-c1cc(Nc2cnc(C#N)cn2)n[nH]1 [Prexasertib]; settings: max 1 µM
Outline: as §1

Dasatinib = compound: CC1=C(C(=CC=C1)Cl)NC(=O)C2=CN=C(S2)NC3=CC(=NC(=N3)C)N4CCN(CC4)CCO [Dasatinib]; settings: max 2 µM
Outline: as §1

Alisertib = compound: COc1cc(Nc2ncc3c(n2)-c2ccc(Cl)cc2C(c2c(F)cccc2OC)=NC3)ccc1C(=O)O [Alisertib]; settings: max 10 µM
Outline: as §1

Palbociclib = compound: CC(=O)c1c(C)c2cnc(Nc3ccc(N4CCNCC4)cn3)nc2n(C2CCCC2)c1=O [Palbociclib]; settings: max 10 µM
Outline: as §1

MK-2206 = compound: NC1(c2ccc(-c3nc4ccn5c(=O)[nH]nc5c4cc3-c3ccccc3)cc2)CCC1 [MK-2206]; settings: max 10 µM
Outline: as §1

SN-38 = compound: CCc1c2c(nc3ccc(O)cc13)-c1cc3c(c(=O)n1C2)COC(=O)[C@]3(O)CC [SN-38]; settings: max 0.3 µM
Outline: as §1

Doxorubicin = compound: COc1cccc2c1C(=O)c1c(O)c3c(c(O)c1C2=O)C[C@@](O)(C(=O)CO)C[C@@H]3O[C@H]1C[C@H](N)[C@H](O)[C@H](C)O1 [Doxorubicin]; settings: max 1 µM
Outline: as §1

Crizotinib = compound: C[C@@H](Oc1cc(-c2cnn(C3CCNCC3)c2)cnc1N)c1c(Cl)ccc(F)c1Cl [Crizotinib]; settings: max 10 µM
Outline: as §1

Lapatinib = compound: CS(=O)(=O)CCNCc1ccc(-c2ccc3ncnc(Nc4ccc(OCc5cccc(F)c5)c(Cl)c4)c3c2)o1 [Lapatinib]; settings: max 10 µM
Outline: as §1

Selumetinib = compound: Cn1cnc2c(F)c(Nc3ccc(Br)cc3Cl)c(C(=O)NOCCO)cc21 [Selumetinib]; settings: max 10 µM
Outline: as §1

AZD6738 = compound: C[C@@H]1COCCN1C2=NC(=NC(=C2)C3(CC3)[S@](=N)(=O)C)C4=C5C=CNC5=NC=C4 [AZD6738]; settings: max 10 µM
Outline: as §1

SRA737 = compound: N#Cc1cnc(Nc2cc(NC[C@H]3CNCCO3)c(C(F)(F)F)cn2)cn1 [SRA737]; settings: max 10 µM
Outline: as §1

Cell Line | IC50, cell viability 72 h (AZD5363) [µM] | IC50, cell viability 72 h (AZD8186) [µM] | IC50, cell viability 72 h (AZD4320) [µM] | IC50, cell viability 72 h (Etoposide) [µM] | IC50, cell viability 72 h (5-Fluorouracil) [µM] | IC50, cell viability 72 h (Venetoclax) [µM] | IC50, cell viability 72 h [1] [µM] | IC50, cell viability 72 h (AZD5153) [µM] | IC50, cell viability 72 h (SG3199) [µM] | IC50, cell viability 72 h (AZD1390) [µM] | IC50, cell viability 72 h (Trametinib) [µM] | IC50, cell viability 72 h (Paclitaxel) [µM] | IC50, cell viability 72 h (Carboplatin) [µM] | IC50, cell viability 72 h (AZD5991) [µM] | IC50, cell viability 72 h (Olaparib) [µM] | IC50, cell viability 72 h (Taselisib) [µM] | IC50, cell viability 72 h (AZD0156) [µM] | IC50, cell viability 72 h (Gemcitabine) [µM] | IC50, cell viability 72 h (Gefitinib) [µM] | IC50, cell viability 72 h (AZD1775) [µM] | IC50, cell viability 72 h (AZD7648) [µM] | IC50, cell viability 72 h (AZD2811) [µM] | IC50, cell viability 72 h (Savolitinib) [µM] | IC50, cell viability 72 h (Prexasertib) [µM] | IC50, cell viability 72 h (Dasatinib) [µM] | IC50, cell viability 72 h (Alisertib) [µM] | IC50, cell viability 72 h (Palbociclib) [µM] | IC50, cell viability 72 h (MK-2206) [µM] | IC50, cell viability 72 h (SN-38) [µM] | IC50, cell viability 72 h (Doxorubicin) [µM] | IC50, cell viability 72 h (Crizotinib) [µM] | IC50, cell viability 72 h (Lapatinib) [µM] | IC50, cell viability 72 h (Selumetinib) [µM] | IC50, cell viability 72 h (AZD6738) [µM] | IC50, cell viability 72 h (SRA737) [µM]
LK-2 (Squamous Cell Lung Carcinoma) | > 10 | > 10 | > 1 | 9.26 | > 20 | > 1 | 1.93 | > 1 | > 0.001 | > 0.3 | 0.349 | 0.00555 | > 10 | > 1 | > 10 | > 10 | > 3 | 0.277 | > 10 | 0.295 | > 10 | 0.0551 | > 1 | 0.137 | > 2 | 0.0606 | > 10 | > 10 | 0.199 | > 1 | 5.71 | > 10 | > 10 | > 10 | > 10
MFE-280 (Endometrial Carcinoma) | > 10 | > 10 | > 1 | 7.53 | > 20 | > 1 | > 5 | > 1 | > 0.001 | > 0.3 | > 1 | 0.533 | > 10 | > 1 | > 10 | 0.177 | > 3 | > 0.3 | > 10 | > 3 | > 10 | > 1 | > 1 | > 1 | > 2 | 4.94 | > 10 | 3.59 | 0.198 | > 1 | > 10 | > 10 | > 10 | > 10 | > 10
MKN45 (Gastric Carcinoma) | > 10 | > 10 | > 1 | > 10 | > 20 | > 1 | 0.821 | 0.719 | > 0.001 | > 0.3 | 0.0599 | 0.0435 | > 10 | > 1 | > 10 | 6.45 | > 3 | 0.0536 | > 10 | 0.497 | > 10 | > 1 | 0.0131 | 0.0197 | > 2 | > 10 | 9.41 | 5.47 | 0.0329 | 0.544 | 0.0827 | > 10 | 5.84 | 2.73 | 3.61
NB12 (Neuroblastoma) | > 10 | > 10 | 0.0311 | > 10 | > 20 | 0.333 | > 5 | 0.217 | – | > 0.3 | > 1 | 0.015 | > 10 | > 1 | > 10 | 0.968 | > 3 | 0.0574 | > 10 | 0.731 | > 10 | 0.342 | > 1 | – | > 2 | – | > 10 | 7.04 | 0.00661 | – | 9.85 | > 10 | > 10 | > 10 | > 10
PC-3_[JPC-3] (Lung Adenocarcinoma) | > 10 | > 10 | > 1 | > 10 | > 20 | > 1 | > 5 | > 1 | > 0.001 | > 0.3 | > 1 | 0.416 | > 10 | > 1 | > 10 | > 10 | > 3 | 0.23 | – | > 3 | > 10 | > 1 | > 1 | > 1 | 0.853 | > 10 | > 10 | > 10 | 0.0359 | > 1 | > 10 | 5.12 | > 10 | > 10 | > 10
SK-MEL-2 (Melanoma) | > 10 | > 10 | > 1 | > 10 | > 20 | > 1 | 0.716 | 0.345 | – | > 0.3 | 0.0324 | 0.402 | > 10 | 0.343 | > 10 | > 10 | > 3 | > 0.3 | > 10 | > 3 | > 10 | > 1 | > 1 | – | > 2 | – | > 10 | > 10 | > 0.3 | – | > 10 | > 10 | 3.99 | > 10 | > 10
